Measurements published in patent US8686150B2 (Sanofi, priority 2011, dated 2014).

target: T1, human full-length recombinant PKC βII (Homo sapiens, UniProt P05771); experiment: Determination of PKC βII inhibition (Caliper mobility-shift kinase assay, Fluorescein-RFARKGSLRQKNV peptide substrate); assay type: biochemical; settings: example compounds at a final concentration of 1.14 μM (±0.15 μM)
T1 construct: Active human full-length recombinant PKC βII; purchased Invitrogen GmbH, Darmstadt, Germany
T1 sequence (P05771 1-673 isoform P05771-2): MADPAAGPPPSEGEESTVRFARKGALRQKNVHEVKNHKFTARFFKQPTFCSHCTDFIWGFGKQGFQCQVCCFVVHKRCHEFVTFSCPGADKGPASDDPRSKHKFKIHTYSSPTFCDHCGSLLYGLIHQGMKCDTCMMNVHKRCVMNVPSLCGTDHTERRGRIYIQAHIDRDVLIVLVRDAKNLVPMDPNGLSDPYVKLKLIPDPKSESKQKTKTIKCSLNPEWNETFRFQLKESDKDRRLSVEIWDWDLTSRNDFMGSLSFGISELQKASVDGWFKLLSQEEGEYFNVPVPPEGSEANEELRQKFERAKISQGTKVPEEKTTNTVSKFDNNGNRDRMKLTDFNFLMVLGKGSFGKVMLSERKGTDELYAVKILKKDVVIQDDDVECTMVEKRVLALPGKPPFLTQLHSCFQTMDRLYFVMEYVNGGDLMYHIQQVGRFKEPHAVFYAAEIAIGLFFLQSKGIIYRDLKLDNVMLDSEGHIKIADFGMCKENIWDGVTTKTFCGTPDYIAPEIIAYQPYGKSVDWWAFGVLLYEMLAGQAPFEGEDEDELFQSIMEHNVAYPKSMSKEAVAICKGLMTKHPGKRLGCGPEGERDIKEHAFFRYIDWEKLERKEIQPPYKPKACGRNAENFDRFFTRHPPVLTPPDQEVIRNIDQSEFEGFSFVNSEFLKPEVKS
Experimental: Determination of PKC βII Inhibition
PKC βII Inhibition was Determined According to the Following Protocol:
Active human full-length recombinant PKC βII and the peptide substrate, Fluorescein-RFARKGSLRQKNV, were purchased from Invitrogen GmbH, Darmstadt, Germany. Adenosine-5′-triphosphate (ATP), bovine serum albumine (BSA), dimethylsulphoxide (DMSO), 4-(2-hydroxyethyl)piperazine-1-ethanesulfonic acid (Hepes), Triton X-100, 1,2-Dioleoyl-sn-glycerol (DAG), L-G-Phosphatidyl-L-serine (PS), calcium chloride (CaCl2), and Pluronic F-68 were purchased from Sigma-Aldrich, Munich, Germany. Magnesium chloride, 1 M sodium hydroxide solution, 1M hydrochloric acid solution and EDTA were obtained from Merck Biosciences, Darmstadt, Germany.
Test compounds were diluted to three times the test concentration in buffer 1 (30 mM Hepes-NaOH, pH 7.4, 0.01% Pluronic F-68 and 3% (v/v) DMSO). The PKC enzyme was diluted to a concentration of 30 ng/ml in buffer 2 (30 mM Hepes-NaOH, pH 7.4, 15 mM MgCl2, 150 μM CaCl2, 150 μg/ml PS, 60 μg/ml DAG, and 0.045% (w/v) Triton X-100). The peptide substrate and ATP were diluted to concentrations of 3 μM and 120 μM, respectively, in buffer 2. Two μl of the compound solution were mixed with 2 μl of the diluted enzyme in a 384-well small volume microtiter plate (Greiner, Bio-One, Frickenhausen, Germany), and the kinase reaction was initiated by addition of 2 μl of the solution containing peptide substrate and ATP. After 60 min incubation at 32° C., the reaction was stopped by addition of 20 μl of a solution containing 130 mM Hepes-NaOH, pH 7.4. 0.0195% (v/v) Brij-35, 6.5 mM EDTA. 0.13% chip coating reagent 3 (Caliper Lifescience Inc, Hopkinton, Mass.) and 6.5% (v/v) DMSO. Phosphorylation of the substrate peptide was then detected on a Caliper 3000 instrument essentially as described by Pommereau et al (J. Biomol. Screening 2004, 9(5), 409-416). Separation conditions were as follows: Pressure −0.8 psi, upstream voltage −3000 V, downstream voltage −800 V. Positive controls (buffer 1 instead of compound) and negative controls (buffer 1 instead of compound and buffer 2 instead of kinase solution) were run in parallel on each plate. Fractional turnover (R) was determined as the height of the peak of the phosphorylated peptide product divided by the sum of the unphosphorylated substrate and phosphorylated product peak heights. Percent-inhibition values for the test compounds were determined using the formula % Inhibition=100*(1−(Rcompound−Rnegative control)/(Rpositive control−Rnegative control).
In the following table % inhibition values observed with example compounds at a final concentration of 1.14 μM (±0.15 μM) are listed: […]

Structure (SMILES)	inhibition at 1.14 µM	% Inhibition
Cc1n[nH]c2nc(-c3ccc(O)cc3)cc(C(=O)N3CCC(N)CC3)c12 [Example 249, (4-Amino-piperidin-1-yl)-[6-(4-hydroxy-phenyl)-3-methyl-1H-pyrazolo[3,4-b]pyridin-4-yl]-methanone]	82%	–
Cc1n[nH]c2nc(-c3ccc(O)c(F)c3)cc(C(=O)NC3CC4CCC(C3)N4C)c12 (stereo not drawn) [Example 301, 6-(3-Fluoro-4-hydroxy-phenyl)-3-methyl-1H-pyrazolo[3,4-b]pyridine-4-carboxylic acid (8-methyl-8-aza-bicyclo[3.2.1]oct-3-yl)-amide]	63%	–
Cc1n[nH]c2nc(-c3ccc(O)cc3)cc(C(=O)N3CCNCC3c3ccccc3C(F)(F)F)c12 (stereo not drawn) [Example 93, [6-(4-Hydroxy-phenyl)-3-methyl-1H-pyrazolo[3,4-b]pyridin-4-yl]-[2-(2-trifluoromethyl-phenyl)-piperazin-1-yl]-methanone]	79%	–
Cc1n[nH]c2nc(-c3ccc(O)cc3)cc(C(=O)N3CCC(N)C3)c12 (stereo not drawn) [Example 264, (3-Amino-pyrrolidin-1-yl)-[6-(4-hydroxy-phenyl)-3-methyl-1H-pyrazolo[3,4-b]pyridin-4-yl]-methanone]	88%	–
CCc1n[nH]c2nc(-c3ccc(O)cc3)cc(C(=O)N3CCC(N)CC3)c12 [Example 166, (4-Amino-piperidin-1-yl)-[3-ethyl-6-(4-hydroxy-phenyl)-1H-pyrazolo[3,4-b]pyridin-4-yl]-methanone]	87%	–
Cc1cc(O)ccc1-c1cc(C(=O)N2CC(C)(C)NCC2(C)C)c2c(C)n[nH]c2n1 [Example 155, [6-(4-Hydroxy-2-methyl-phenyl)-3-methyl-1H-pyrazolo[3,4-b]pyridin-4-yl]-(2,2,5,5-tetramethyl-piperazin-1-yl)-methanone]	88%	–
Cc1n[nH]c2nc(-c3ccc(O)cc3)cc(C(=O)N[C@@H]3CN4CCC3CC4)c12 [Example 200]	–	70%
Cc1n[nH]c2nc(-c3ccc(O)cc3)cc(C(=O)NC3CCCNC3)c12 (stereo not drawn) [Example 242, 6-(4-Hydroxy-phenyl)-3-methyl-1H-pyrazolo[3,4-b]pyridine-4-carboxylic acid piperidin-3-ylamide]	87%	–
Cc1n[nH]c2nc(-c3ccc(O)cc3)cc(C(=O)N[C@H]3[C@@H]4CNC[C@@H]43)c12 [Example 214, 6-(4-Hydroxy-phenyl)-3-methyl-1H-pyrazolo[3,4-b]pyridine-4-carboxylic acid (3-azabicyclo[3.1.0]hex-6-yl)-amide]	73%	–
CCc1n[nH]c2nc(-c3ccc(O)cc3)cc(C(=O)NC3CNC3)c12 [Example 183, 3-Ethyl-6-(4-hydroxy-phenyl)-1H-pyrazolo[3,4-b]pyridine-4-carboxylic acid azetidin-3-ylamide]	67%	–
Cc1cc(-c2cc(C(=O)N3CCNCC3)c3c(C)n[nH]c3n2)ccc1O [Example 8, [6-(4-Hydroxy-3-methyl-phenyl)-3-methyl-1H-pyrazolo[3,4-b]pyridin-4-yl]-piperazin-1-yl-methanone]	32%	–
Cc1n[nH]c2nc(-c3ccc(O)cc3)cc(C(=O)NC3CCNC4(CCC4)C3)c12 (stereo not drawn) [Example 204, 6-(4-Hydroxy-phenyl)-3-methyl-1H-pyrazolo[3,4-b]pyridine-4-carboxylic acid (5-aza-spiro[3.5]non-8-yl)-amide]	82%	–
Cc1n[nH]c2nc(-c3ccc(O)cc3)cc(C(=O)N3CCOC4(CCCNC4)C3)c12 (stereo not drawn) [Example 258, [6-(4-Hydroxy-phenyl)-3-methyl-1H-pyrazolo[3,4-b]pyridin-4-yl]-(1-oxa-4,8-diaza-spiro[5.5]undec-4-yl)-methanone]	78%	–
Cc1n[nH]c2nc(-c3ccc(O)cc3F)cc(C(=O)N3C[C@@H](c4ccccc4)NC[C@@H]3C)c12 (single isomer, unassigned) [Example 461, [6-(2-Fluoro-4-hydroxy-phenyl)-3-methyl-1H-pyrazolo[3,4-b]pyridin-4-yl]-(trans-2-methyl-5-phenyl-piperazin-1-yl)-methanone]	–	99%

Now from value to compound, other results behind:

inhibition at 1.14 µM	Structure (SMILES)	% Inhibition
39%	Cc1n[nH]c2nc(-c3ccc(O)cc3)cc(C(=O)N3CCCN(C(=O)c4ccncc4)CC3)c12 [Example 387, [6-(4-Hydroxy-phenyl)-3-methyl-1H-pyrazolo[3,4-b]pyridin-4-yl]-[4-(pyridine-4-carbonyl)-[1,4]diazepan-1-yl]-methanone]	–
44%	Cc1n[nH]c2nc(-c3ccc(O)cc3)cc(C(=O)N3C[C@@H](C)NC[C@@H]3c3ccccc3)c12 [Example 458, [6-(4-Hydroxy-phenyl)-3-methyl-1H-pyrazolo[3,4-b]pyridin-4-yl]-((2S,5R)-5-methyl-2-phenyl-piperazin-1-yl)-methanone]	–
92%	Cc1n[nH]c2nc(-c3ccc(O)cc3F)cc(C(=O)N3C[C@H](C)NC[C@@H]3C)c12 [Example 430, ((2S,5S)-2,5-Dimethyl-piperazin-1-yl)-[6-(2-fluoro-4-hydroxy-phenyl)-3-methyl-1H-pyrazolo[3,4-b]pyridin-4-yl]-methanone]	–
49%	Cc1n[nH]c2nc(-c3ccc(O)cc3)cc(C(=O)NC3CCN(Cc4ccccc4)CC3)c12 [Example 392, 6-(4-Hydroxy-phenyl)-3-methyl-1H-pyrazolo[3,4-b]pyridine-4-carboxylic acid (1-benzyl-piperidin-4-yl)-amide]	–
51%	Cc1n[nH]c2nc(-c3ccc(O)c(F)c3)cc(C(=O)NCCC3CCCN3C)c12 (stereo not drawn) [Example 316, 6-(3-Fluoro-4-hydroxy-phenyl)-3-methyl-1H-pyrazolo[3,4-b]pyridine-4-carboxylic acid [2-(1-methyl-pyrrolidin-2-yl)-ethyl]-amide]	–
87%	CC(=O)N1CCN(C(=O)c2cc(-c3ccc(O)cc3)nc3[nH]nc(C)c23)CC1 [Example 265, 1-{4-[6-(4-Hydroxy-phenyl)-3-methyl-1H-pyrazolo[3,4-b]pyridine-4-carbonyl]-piperazin-1-yl}-ethanone]	–
63%	CCN1CCCC(NC(=O)c2cc(-c3ccc(O)c(F)c3)nc3[nH]nc(C)c23)C1 (stereo not drawn) [Example 332, 6-(3-Fluoro-4-hydroxy-phenyl)-3-methyl-1H-pyrazolo[3,4-b]pyridine-4-carboxylic acid (1-ethyl-piperidin-3-yl)-amide]	–
87%	Cc1n[nH]c2nc(-c3ccc(O)cc3)cc(C(=O)N3CCNCC3c3ccc(Cl)cc3)c12 (stereo not drawn) [Example 378, [2-(4-Chloro-phenyl)-piperazin-1-yl]-[6-(4-hydroxy-phenyl)-3-methyl-1H-pyrazolo[3,4-b]pyridin-4-yl]-methanone]	–
31%	CC(=O)N1CCN(C(=O)c2cc(-c3ccc(O)c(F)c3)nc3[nH]nc(C)c23)CC1 [Example 356, 1-{4-[6-(3-Fluoro-4-hydroxy-phenyl)-3-methyl-1H-pyrazolo[3,4-b]pyridine-4-carbonyl]-piperazin-1-yl}-ethanone]	–
71%	C[C@@H]1CN(C(=O)c2cc(-c3ccc(O)cc3)nc3[nH]nc(C(F)(F)F)c23)CCN1 [Example 401, [6-(4-Hydroxy-phenyl)-3-trifluoromethyl-1H-pyrazolo[3,4-b]pyridin-4-yl]-((R)-3-methyl-piperazin-1-yl)-methanone]	–
79%	Cc1n[nH]c2nc(-c3ccc(O)cc3F)cc(C(=O)N3C[C@H]4CNC[C@H]4C3)c12 [Example 419, [6-(2-Fluoro-4-hydroxy-phenyl)-3-methyl-1H-pyrazolo[3,4-b]pyridin-4-yl]-(3aR,6aS)-hexahydro-pyrrolo[3,4-c]pyrrol-2-yl-methanone]	–
89%	CCC[C@@H]1CN(C(=O)c2cc(-c3ccc(O)c(F)c3)nc3[nH]nc(C)c23)CCN1 [Example 291, [6-(3-Fluoro-4-hydroxy-phenyl)-3-methyl-1H-pyrazolo[3,4-b]pyridin-4-yl]-((R)-3-propyl-piperazin-1-yl)-methanone]	–
99%	CCC[C@@H]1CN(C(=O)c2cc(-c3ccc(O)cc3F)nc3[nH]nc(C)c23)[C@@H](C)CN1 [Example 448, [6-(2-Fluoro-4-hydroxy-phenyl)-3-methyl-1H-pyrazolo[3,4-b]pyridin-4-yl]-((2S,5R)-2-methyl-5-propyl-piperazin-1-yl)-methanone]	–
